# In patent US20230055237A1, “COMPOUNDS AND METHODS FOR THE TREATMENT OF CYSTIC FIBROSIS” (Flatley Discovery Lab, LLC, priority 2019, published 2023):
# Biological target: T1, CFTR (Homo sapiens, UniProt P13569, DEL508-508)
# T1 construct: Primary CF airway epithelial cells were obtained from the UNC Cystic Fibrosis Tissue Procurement and Cell Culture Core; host or cells: primary CF airway epithelial cells, differentiated at the air-liquid interface
# Assay: Equivalent current assay in primary CF airway epithelial cells (NAUC, combination with 1st site corrector FDL169 or VX-809)
# Type: cell-based
# Conditions: 37° C., 24 h
# [1] = test compound 1 μM in combination with 1st site corrector VX-809 (3 μM)
# [2] = test compound 3 μM in combination with 1st site corrector VX-809 (3 μM)
# [3] = test compound 10 μM in combination with 1st site corrector VX-809 (3 μM)
# [4] = test compound 1 μM in combination with 1st site corrector FDL169 (3 μM)
# [5] = test compound 3 μM in combination with 1st site corrector FDL169 (3 μM)
# [6] = test compound 10 μM in combination with 1st site corrector FDL169 (3 μM)
# T1 sequence (P13569 with tags, fused parts or gaps DEL508-508): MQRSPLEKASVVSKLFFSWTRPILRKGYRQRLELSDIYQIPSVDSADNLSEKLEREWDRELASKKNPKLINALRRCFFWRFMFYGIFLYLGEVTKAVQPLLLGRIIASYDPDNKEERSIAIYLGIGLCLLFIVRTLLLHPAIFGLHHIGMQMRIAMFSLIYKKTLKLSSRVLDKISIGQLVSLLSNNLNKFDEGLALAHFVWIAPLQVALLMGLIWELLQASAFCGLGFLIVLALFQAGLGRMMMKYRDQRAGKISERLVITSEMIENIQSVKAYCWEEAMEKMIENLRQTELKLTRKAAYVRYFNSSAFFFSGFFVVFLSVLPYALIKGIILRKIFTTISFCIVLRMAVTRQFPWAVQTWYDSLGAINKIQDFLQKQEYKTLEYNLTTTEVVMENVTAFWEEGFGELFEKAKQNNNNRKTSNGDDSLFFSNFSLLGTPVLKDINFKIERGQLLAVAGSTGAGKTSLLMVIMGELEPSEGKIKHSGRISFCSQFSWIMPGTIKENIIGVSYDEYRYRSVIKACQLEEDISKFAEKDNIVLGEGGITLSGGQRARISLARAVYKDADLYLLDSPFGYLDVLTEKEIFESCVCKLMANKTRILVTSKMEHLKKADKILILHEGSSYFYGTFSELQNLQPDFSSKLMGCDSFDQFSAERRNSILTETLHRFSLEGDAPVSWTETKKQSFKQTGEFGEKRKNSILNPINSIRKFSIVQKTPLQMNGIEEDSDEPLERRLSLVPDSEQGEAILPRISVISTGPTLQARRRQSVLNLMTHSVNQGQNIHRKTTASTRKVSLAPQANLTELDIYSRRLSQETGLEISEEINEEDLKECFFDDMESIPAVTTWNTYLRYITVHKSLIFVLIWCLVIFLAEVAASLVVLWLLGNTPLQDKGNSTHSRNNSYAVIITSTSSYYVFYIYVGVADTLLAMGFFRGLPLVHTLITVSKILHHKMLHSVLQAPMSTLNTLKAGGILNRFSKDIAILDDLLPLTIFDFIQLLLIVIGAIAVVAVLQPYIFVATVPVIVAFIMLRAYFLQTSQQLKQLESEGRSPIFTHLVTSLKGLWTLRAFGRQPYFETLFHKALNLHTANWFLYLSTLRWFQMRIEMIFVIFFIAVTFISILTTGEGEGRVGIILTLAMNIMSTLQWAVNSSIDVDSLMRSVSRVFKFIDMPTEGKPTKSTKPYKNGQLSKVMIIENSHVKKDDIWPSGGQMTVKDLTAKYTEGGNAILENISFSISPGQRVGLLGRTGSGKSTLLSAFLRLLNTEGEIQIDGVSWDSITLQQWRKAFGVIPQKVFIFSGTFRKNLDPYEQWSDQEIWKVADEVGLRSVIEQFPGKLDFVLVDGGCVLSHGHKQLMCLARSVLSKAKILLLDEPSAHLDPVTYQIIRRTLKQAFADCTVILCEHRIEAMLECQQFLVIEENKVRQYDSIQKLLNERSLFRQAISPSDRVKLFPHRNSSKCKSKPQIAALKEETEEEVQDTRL
Compound,Nauc @ 1 μM [1],Nauc @ 3 μM [2],Nauc @ 10 μM [3],Nauc @ 1 μM [4],Nauc @ 3 μM [5],Nauc @ 10 μM [6]
"CONC(=O)[C@H]1[C@@H](C(=O)Nc2cc(Cl)cc(Cl)c2)[C@H]2C[C@](C)(O)CN2[C@]12C(=O)Nc1c(Cl)cc(Cl)cc12 [Example 246, (1′R,2′S,6′S,7a′R)-5,7-dichloro-N1′-(3,5-dichlorophenyl)-6′-hydroxy-N2′-methoxy-6′-methyl-2-oxo-1′,2′,5′,6′,7′,7a′-hexahydrospiro[indoline-3,3′-pyrrolizine]-1′,2′-dicarboxamide]",+ (NAUC “+” refers to an observed NAUC <140% of positive control),+ (NAUC “+” refers to an observed NAUC <140% of positive control),+++ (NAUC “+++” refers to an observed NAUC>170% of positive control),–,–,–
"CN(C(=O)[C@H]1[C@@H](C(F)(F)F)NC2(C(=O)N(C)c3c(Cl)cc(Cl)cc32)[C@H]1C(=O)O)c1cc(Cl)cc(Cl)c1 (mixture of isomers) [Example 271, rac-(3′S,4′R,5′S)-5,7-dichloro-4′-((3,5-dichlorophenyl)(methyl)carbamoyl)-1-methyl-2-oxo-5′-(trifluoromethyl)spiro[indoline-3,2′-pyrrolidine]-3′-carboxylic acid]",+ (NAUC “+” refers to an observed NAUC <140% of positive control),+++ (NAUC “+++” refers to an observed NAUC>170% of positive control),+ (NAUC “+” refers to an observed NAUC <140% of positive control),–,–,–
O=C(O)[C@H]1[C@@H](C(=O)N(CC2CCCC2)c2cccc(C(F)(F)F)c2)[C@H]2CC(F)(F)CN2[C@]12C(=O)Nc1c(Cl)cc(Cl)cc12 [Example 181],–,–,–,++ (NAUC “++” refers to an observed NAUC 170-140% of positive control),+++ (NAUC “+++” refers to an observed NAUC>170% of positive control),–
O=C(Nc1cc(Cl)cc(Cl)c1)C1C(C(F)(F)c2ccccc2C(F)(F)F)NC2(C(=O)Nc3c(Cl)cc(Cl)cc32)C1C(=O)O (stereo not drawn) [Example 69.b],++ (NAUC “++” refers to an observed NAUC 170-140% of positive control),+++ (NAUC “+++” refers to an observed NAUC>170% of positive control),++ (NAUC “++” refers to an observed NAUC 170-140% of positive control),–,–,–
Cc1nc2ccc(NC(=O)[C@H]3[C@H]4CC(F)(F)CN4[C@]4(C(=O)Nc5c(Cl)cc(Cl)cc54)[C@H]3C(=O)O)cc2s1 [Example 118],+ (NAUC “+” refers to an observed NAUC <140% of positive control),+ (NAUC “+” refers to an observed NAUC <140% of positive control),+ (NAUC “+” refers to an observed NAUC <140% of positive control),–,–,–
Cn1cnc(NC(=O)[C@H]2[C@H]3CC(F)(F)CN3[C@]3(C(=O)Nc4c(Cl)cc(Cl)cc43)[C@H]2C(=O)O)c1 [Example 142],–,–,–,+ (NAUC “+” refers to an observed NAUC <140% of positive control),+ (NAUC “+” refers to an observed NAUC <140% of positive control),–
CN1C(=O)[C@]2(c3cc(Cl)cc(Cl)c31)[C@@H](C(=O)O)[C@@H](C(=O)N(CC(C)(C)C)c1cc(Cl)cc(Cl)c1)[C@H]1CC(F)(F)CN12 [Example 207],–,–,–,++ (NAUC “++” refers to an observed NAUC 170-140% of positive control),++ (NAUC “++” refers to an observed NAUC 170-140% of positive control),–
CN(CC(C)(C)c1cccc(C(C)(C)C)c1)C(=O)[C@H]1[C@H]2CC(F)(F)CN2[C@]2(C(=O)Nc3c(Cl)cc(Cl)cc32)[C@H]1C(=O)O [Example 170],+++ (NAUC “+++” refers to an observed NAUC>170% of positive control),+ (NAUC “+” refers to an observed NAUC <140% of positive control),+ (NAUC “+” refers to an observed NAUC <140% of positive control),–,–,–
CN(C(=O)[C@H]1[C@H]2CC(F)(F)CN2[C@]2(C(=O)N(CC3CC3)c3c(Cl)cc(Cl)cc32)[C@H]1C(=O)O)c1cc(Cl)cc(Cl)c1 [Example 201],–,–,–,+ (NAUC “+” refers to an observed NAUC <140% of positive control),+ (NAUC “+” refers to an observed NAUC <140% of positive control),–
O=C(Nc1cc(Cl)cc(Cl)c1)C1C(C(F)(F)c2ccccn2)NC2(C(=O)Nc3c(Cl)cc(Cl)cc32)C1C(=O)O (stereo not drawn) [Example 72.b],–,–,+ (NAUC “+” refers to an observed NAUC <140% of positive control),–,–,–
CN(C(=O)[C@H]1[C@H]2CCCN2[C@]2(C(=O)Nc3c(Cl)cc(Cl)cc32)[C@H]1C(=O)O)c1cc(Cl)cc(Cl)c1 [Example 266],+ (NAUC “+” refers to an observed NAUC <140% of positive control),+++ (NAUC “+++” refers to an observed NAUC>170% of positive control),+++ (NAUC “+++” refers to an observed NAUC>170% of positive control),–,–,–
O=C(Nc1cncc(C(F)(F)F)n1)C1C2CC3(CC3)CN2C2(C(=O)Nc3c(Cl)cc(Cl)cc32)C1C(=O)O (stereo not drawn) [Example 21],–,+++ (NAUC “+++” refers to an observed NAUC>170% of positive control),+++ (NAUC “+++” refers to an observed NAUC>170% of positive control),–,–,–
"C[C@]1(O)CC2C(C(=O)Nc3cc(Cl)cc(Cl)c3)C(C(=O)NS(C)(=O)=O)C3(C(=O)Nc4c(Cl)cc(Cl)cc43)N2C1 (stereo partly drawn) [Example 247, (6′S)-5,7-dichloro-N1′-(3,5-dichlorophenyl)-6′-hydroxy-6′-methyl-N2′-(methylsulfonyl)-2-oxo-1′,2′,5′,6′,7′,7a′-hexahydrospiro[indoline-3,3′-pyrrolizine]-1′,2′-dicarboxamide]",+ (NAUC “+” refers to an observed NAUC <140% of positive control),++ (NAUC “++” refers to an observed NAUC 170-140% of positive control),+++ (NAUC “+++” refers to an observed NAUC>170% of positive control),–,–,–
CN(C(=O)[C@H]1[C@H]2C[C@](C)(OCc3ccccc3)CN2[C@]2(C(=O)Nc3c(Cl)cc(Cl)cc32)[C@H]1C(=O)O)c1cc(Cl)cc(Cl)c1 [Example 92],++ (NAUC “++” refers to an observed NAUC 170-140% of positive control),+++ (NAUC “+++” refers to an observed NAUC>170% of positive control),+++ (NAUC “+++” refers to an observed NAUC>170% of positive control),+ (NAUC “+” refers to an observed NAUC <140% of positive control),++ (NAUC “++” refers to an observed NAUC 170-140% of positive control),+++ (NAUC “+++” refers to an observed NAUC>170% of positive control)
"O=C(O)[C@@H]1[C@H](C(=O)N(CC2CC2)c2cc(Cl)cc(Cl)c2)[C@H](C(F)(F)F)NC12C(=O)Nc1c(Cl)cc(Cl)cc12 (single isomer, unassigned) [Example 270a]",–,–,–,+++ (NAUC “+++” refers to an observed NAUC>170% of positive control),+++ (NAUC “+++” refers to an observed NAUC>170% of positive control),++ (NAUC “++” refers to an observed NAUC 170-140% of positive control)
COc1c(Cl)cc(NC(=O)C2C3CC(F)(F)CN3C3(C(=O)Nc4c(Cl)cc(Cl)cc43)C2C(=O)O)cc1Cl (stereo not drawn) [Example 9],–,+++ (NAUC “+++” refers to an observed NAUC>170% of positive control),+++ (NAUC “+++” refers to an observed NAUC>170% of positive control),–,–,–
"CC(C)(C)CN(C(=O)[C@H]1[C@H]2C[C@](C)(O)CN2[C@]2(C(=O)Nc3c(Cl)cc(Cl)cc32)[C@H]1C(=O)O)c1cc(Cl)cc(Cl)c1 [Example 91, (1′R,2′S,3R,6′S,7a′R)-5,7-dichloro-1′-((3,5-dichlorophenyl)(neopentyl)carbamoyl)-6′-hydroxy-6′-methyl-2-oxo-1′,2′,5′,6′,7′,7a′-hexahydrospiro[indoline-3,3′-pyrrolizine]-2′-carboxylic acid]",–,–,–,++ (NAUC “++” refers to an observed NAUC 170-140% of positive control),++ (NAUC “++” refers to an observed NAUC 170-140% of positive control),–
O=C(Nc1cc(Cl)cc(Cl)c1)C1C(C(F)(F)c2ccccc2C(F)(F)F)NC2(C(=O)Nc3c(Cl)cc(Cl)cc32)C1C(=O)O (stereo not drawn) [Example 69.a],–,–,+ (NAUC “+” refers to an observed NAUC <140% of positive control),–,–,–
O=C(Nc1cc(Cl)cc(Cl)c1)C1C2C[C@@](O)(C(F)(F)F)CN2C2(C(=O)Nc3c(Cl)cc(Cl)cc32)C1C(=O)O (stereo partly drawn) [Example 58],–,+ (NAUC “+” refers to an observed NAUC <140% of positive control),+++ (NAUC “+++” refers to an observed NAUC>170% of positive control),–,–,–
"CN(C(=O)C1C2CC(F)(F)CN2C2(C(=O)Nc3c(Cl)cc(Cl)cc32)C1C(=O)O)c1cc(C(F)(F)F)cc(C(F)(F)F)n1 (single isomer, unassigned) [Example 273a, 1′-((4,6-bis(trifluoromethyl)pyridin-2-yl)(methyl)carbamoyl)-5,7-dichloro-6′,6′-difluoro-2-oxo-1′,2′,5′,6′,7′,7a′-hexahydrospiro[indoline-3,3′-pyrrolizine]-2′-carboxylic acid]",–,–,–,+ (NAUC “+” refers to an observed NAUC <140% of positive control),+ (NAUC “+” refers to an observed NAUC <140% of positive control),–
O=C(Nc1cc(Cl)cc(Cl)c1)C1C(C(F)(F)F)NC2(C(=O)Nc3c(Cl)cc(Cl)cc32)C1C(=O)O (stereo not drawn) [Example 35],–,+++ (NAUC “+++” refers to an observed NAUC>170% of positive control),+++ (NAUC “+++” refers to an observed NAUC>170% of positive control),–,–,–
O=C(Nc1cc(Cl)cc(Cl)c1)C1C2N(CCC2(F)F)C2(C(=O)Nc3c(Cl)cc(Cl)cc32)C1C(=O)O (stereo not drawn) [Example 59],–,+ (NAUC “+” refers to an observed NAUC <140% of positive control),++ (NAUC “++” refers to an observed NAUC 170-140% of positive control),–,–,–
